What all share (assay type): cell-based
The target of assay [1] is T1, A431 (EGFR_WT) (Homo sapiens, UniProt P00533).
T1 construct: endogenous in cells; host or cells: A431, NCI-H2073, NCI-H292
Briefly: EGFR degradation assay (western blot), A431 cells. The settings on record: compounds 24 h, western blot, read-out: A431 DC50. How it is done:
(§1) A431 (EGFR_WT), NCl-H2073 (EGFR_WT), NCl-H292 (EGFR_WT), BaF3_YVAM (Her2_A775insYVAM), BaF3_SVD (EGFR_D770insSVD), BaF3_ASV (EGFR_A776inASV), or BaF3_DTC (EGFR_Exon19del/T790M/C797S) cells were seeded in a 24-well plate at a density of 4×10^5 cells per well for EGFR WT cells and 8× cells per well for EGFR or Her2 mutant cells, and the plates were incubated overnight. The cells were treated with the desired compounds for 24 h. The culture medium was removed, and 100 μL of RIPA buffer (Beyotime, P0013B) containing 1% Protease Inhibitor Cocktail (Bimake, B14001), 1% Phosphatase Inhibitor Cocktail 2 (Sigma, P5726), and 1% Phosphatase Inhibitor Cocktail 3 (Sigma, P0044) were added to lyse the cells. Then, the cell lysates were transferred to 1.5 mL microcentrifuge tubes and centrifuged at 12,000 rpm and 4° C. for 30 min. The supernatants were transferred into new tubes, and the protein concentration was determined using the BCA protein quantification method. All samples were diluted to the same concentration using RIPA buffer, loading buffer was added, samples were denatured, and 15 μg of protein per lane was loaded onto a SurePAGE 4-20% Bis-Tris gel. Samples were separated via electrophoresis in MOPS running buffer at 180 V for 100 min. Then, proteins were transferred onto PVDF membranes using the MiniBlot™ Electrophoretic Transfer Cell Device (Beyotime, E6050). The membrane was blocked using block buffer (LI-COR 927-60001) to prevent non-specific binding. The membrane was incubated with primary antibodies (1:500 dilution, EGFR-CST4405, 1:2000 dilution, Tubulin-ABclonal #AC021) at 4° C. overnight. The membrane was washed three times with 1× TBST buffer for 15 min each. The membrane was incubated with secondary antibodies IRDye 680RD Goat anti-Rabbit IgG Secondary Antibody (1:2000 dilution, LI-COR 926-68071) and IRDye 800CW Goat anti-Mouse IgG Secondary Antibody (1:2000 dilution, LI-COR 926-32210). Finally, the membrane was washed again with 1× TBST buffer 3 times. Fluorescence was detected using the Odyssey CLx Imaging System, and the data were analyzed with Empiria Studio Software and GraphPad Prism 9. Table 4 and Table 5 list the degradation results, where the degradation potency is represented by DC50, the concentration of compounds to cause the degradation of 50% of the corresponding proteins. FIGS. 45-49 show western blots illustrating the EGFR degradative activity of exemplary Compound of the present disclosure and a comparator Compound A in different cell lines 24 h after administration. The Compound referred herein as Compound A is disclosed in WO 2022/171123 A1 (see, compound 133, page 46; published Aug. 18, 2022). WO 2022/171123 A1 discloses phosphine oxide derived molecules with EGFR degradation activity.
For orientation: In western blotting, separated proteins are transferred to a membrane and probed.

In assay [2] the test system is BaF3_DTC (EGFR_Exon19del/T790M/C797S). Kind of assay: EGFR degradation assay (western blot), BaF3_DTC cells. The settings on record: BaF3_DTC cells (EGFR_Exon19del/T790M/C797S), compounds 24 h, western blot; read-out: BaF3_DTC DC50. How it is done: as §1
Assay [3] concerns the target T2, BaF3_ASV (EGFR_A776inASV) (Homo sapiens, UniProt P00533, DUP767-769).
T2 construct: expressed in transfected cells; host or cells: Ba/F3 (engineered)
Kind of assay: EGFR degradation assay (western blot), BaF3_ASV cells. The note with it: BaF3_ASV cells, compounds 24 h, western blot; read-out: BaF3_ASV DC50. On the procedure: as §1

Assay [4] deals with A431. Briefly: Cell growth inhibition assay (CellTiter-Glo), A431. The settings on record: Homo sapiens, A-431, 72 h, Table 6; A431 cells, three days, CellTiter-Glo; read-out: A431 GI50. How it is done: (§2) Cells were seeded in a 96-well plate (Corning 3610) with 90 μL of culture medium per well, and plates were incubated at 37° C. overnight. A 1,000× DMSO stock solution of the desired compound was prepared the following day. A compound dilution plate was prepared by diluting the stock solution 1:100 in the corresponding cell culture medium, 10 μL of the diluted compound solution was added to each 96-well plate well containing the seeded cells. […] The content of the wells was mixed by shaking continuously for 10 min, and luminescence was measured using Envision (PerkinElmer). The data were analyzed with GraphPad Prism 9 (see FIG. 50).
(§3) Table 6, Table 7, and Table 8 list the cell growth inhibition results, where Gls0 represents the compound concentration to cause 50% cell growth inhibition in comparison with DMSO.
For orientation: ATP-based viability assays read luminescence as a measure of living cells.

The test system of assay [5] is BaF3_DTC. Kind of assay: Cell growth inhibition assay (CellTiter-Glo), BaF3_DTC. The settings on record: 72 h; Table 6; BaF3_DTC cells, three days, CellTiter-Glo; read-out: BaF3_DTC GI50. How it is done:
as §2, §3

For assay [6], the system named is BaF3_ASV. Kind of assay: Cell growth inhibition assay (CellTiter-Glo), BaF3_ASV. The note with it: 72 h. On the procedure: as §2, §3
[7] abbreviates: Table 6, BaF3_ASV cells, three days, CellTiter-Glo, read-out: BaF3_ASV GI50.

Each structure is given as a SMILES string. Like-named read-outs stand apart in the source and are kept apart here.

T2 sequence (P00533 with tags, fused parts or gaps DUP767-769): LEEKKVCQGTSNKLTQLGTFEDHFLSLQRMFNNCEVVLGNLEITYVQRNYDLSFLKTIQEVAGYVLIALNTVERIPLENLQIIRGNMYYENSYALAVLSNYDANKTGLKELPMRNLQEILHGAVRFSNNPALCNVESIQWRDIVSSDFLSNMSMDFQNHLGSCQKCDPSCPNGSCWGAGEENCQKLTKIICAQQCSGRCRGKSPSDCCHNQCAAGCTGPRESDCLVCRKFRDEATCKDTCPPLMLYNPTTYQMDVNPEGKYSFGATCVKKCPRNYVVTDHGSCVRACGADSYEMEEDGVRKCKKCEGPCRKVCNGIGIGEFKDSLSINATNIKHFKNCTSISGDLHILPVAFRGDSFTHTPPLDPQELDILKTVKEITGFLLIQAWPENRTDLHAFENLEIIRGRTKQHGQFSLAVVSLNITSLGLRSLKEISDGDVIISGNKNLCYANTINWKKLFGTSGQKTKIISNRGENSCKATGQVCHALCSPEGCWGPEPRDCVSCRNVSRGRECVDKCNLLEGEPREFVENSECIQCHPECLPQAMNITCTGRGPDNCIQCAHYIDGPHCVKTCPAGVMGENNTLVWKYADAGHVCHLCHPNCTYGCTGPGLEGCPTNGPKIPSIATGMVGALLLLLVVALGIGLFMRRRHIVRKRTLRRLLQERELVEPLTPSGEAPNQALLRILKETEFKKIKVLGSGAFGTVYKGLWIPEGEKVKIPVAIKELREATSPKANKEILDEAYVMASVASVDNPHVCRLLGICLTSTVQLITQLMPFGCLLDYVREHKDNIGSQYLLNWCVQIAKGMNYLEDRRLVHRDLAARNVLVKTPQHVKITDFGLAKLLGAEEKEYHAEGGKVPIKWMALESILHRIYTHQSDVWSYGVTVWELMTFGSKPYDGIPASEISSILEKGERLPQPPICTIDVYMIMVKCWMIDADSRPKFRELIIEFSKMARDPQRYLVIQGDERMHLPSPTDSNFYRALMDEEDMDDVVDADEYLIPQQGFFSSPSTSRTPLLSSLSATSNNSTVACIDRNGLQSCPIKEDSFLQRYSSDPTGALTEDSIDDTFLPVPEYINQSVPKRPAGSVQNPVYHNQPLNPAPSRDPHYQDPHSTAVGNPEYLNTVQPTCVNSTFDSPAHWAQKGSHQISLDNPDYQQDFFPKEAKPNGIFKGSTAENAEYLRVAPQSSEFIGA
T1 sequence (P00533 25-1210): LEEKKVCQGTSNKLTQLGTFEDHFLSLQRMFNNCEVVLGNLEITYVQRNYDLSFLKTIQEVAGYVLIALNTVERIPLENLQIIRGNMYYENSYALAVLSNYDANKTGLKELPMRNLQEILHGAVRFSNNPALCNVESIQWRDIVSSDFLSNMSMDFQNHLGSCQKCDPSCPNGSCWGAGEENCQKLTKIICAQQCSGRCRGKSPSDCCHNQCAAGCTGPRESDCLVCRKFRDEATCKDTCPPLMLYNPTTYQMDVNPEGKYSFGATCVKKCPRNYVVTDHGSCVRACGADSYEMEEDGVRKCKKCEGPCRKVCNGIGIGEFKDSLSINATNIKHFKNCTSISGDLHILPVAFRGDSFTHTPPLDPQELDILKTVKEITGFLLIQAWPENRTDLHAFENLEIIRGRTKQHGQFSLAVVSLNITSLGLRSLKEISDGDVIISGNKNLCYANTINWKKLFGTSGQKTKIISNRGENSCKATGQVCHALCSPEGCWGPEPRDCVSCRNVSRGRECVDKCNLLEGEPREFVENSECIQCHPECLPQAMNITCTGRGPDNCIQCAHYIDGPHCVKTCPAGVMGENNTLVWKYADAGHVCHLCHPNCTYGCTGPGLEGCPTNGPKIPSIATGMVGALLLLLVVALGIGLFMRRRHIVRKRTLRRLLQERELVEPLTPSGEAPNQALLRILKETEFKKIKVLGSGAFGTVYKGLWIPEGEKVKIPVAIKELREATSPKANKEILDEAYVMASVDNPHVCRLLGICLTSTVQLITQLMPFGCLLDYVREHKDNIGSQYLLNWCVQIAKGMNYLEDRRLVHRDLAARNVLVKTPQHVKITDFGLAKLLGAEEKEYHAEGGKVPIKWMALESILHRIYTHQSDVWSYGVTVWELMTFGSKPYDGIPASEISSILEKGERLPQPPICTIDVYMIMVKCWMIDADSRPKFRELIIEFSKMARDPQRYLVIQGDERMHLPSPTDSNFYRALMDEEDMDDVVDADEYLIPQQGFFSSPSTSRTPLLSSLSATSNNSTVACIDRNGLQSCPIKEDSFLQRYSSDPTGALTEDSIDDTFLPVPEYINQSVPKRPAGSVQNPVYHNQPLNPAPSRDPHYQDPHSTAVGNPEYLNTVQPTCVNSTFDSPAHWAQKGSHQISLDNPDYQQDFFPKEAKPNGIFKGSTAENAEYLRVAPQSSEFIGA

By DC50 is commonly meant the concentration giving 50% degradation. The term GI50 denotes the concentration at which growth is held to half of that of the control. Take `CCc1cc(Nc2ncc(Br)c(Nc3ccc4nccnc4c3NS(C)(=O)=O)n2)c(OC)cc1N1CCC(N2CCN(CCc3cccc4c3oc(=O)n4C3CCC(=O)NC3=O)CC2)CC1` (stereo not shown) [Compound 77, N-(6-((5-bromo-2-((4-(4-(4-(2-(3-(2,6-dioxopiperidin-3-yl)-2-oxo-2,3-dihydrobenzo[d]oxazol-7-yl)ethyl)piperazin-1-yl)piperidin-1-yl)-5-ethyl-2-methoxyphenyl)amino)pyrimidin-4-yl)amino)quinoxalin-5-yl)methanesulfonamide]: the DC50 in assay [1] is above 1000 nM; in assay [2] it was 2.7 nM; in assay [3] it was above 1000 nM. In addition, the 50% growth inhibitory concentration (GI50) in assay [4] is above 3000 nM; in assay [5], 5.39 nM; in assay [6] (read-out: BaF3_ASV GI50 (nM)), 131 nM.

Consider `CCc1cc(Nc2ncc(Br)c(Nc3ccc4nccnc4c3NS(C)(=O)=O)n2)c(OC)cc1N1CCC(N2CC[C@@H](CN3CCN(c4ccc5c(c4)CN([C@H]4CCC(=O)NC4=O)C5=O)CC3)C2)CC1` [Compound 92], for which the DC50 in assay [1] is above 1000 nM; in assay [2], 3.97 nM; in assay [3], 24.5 nM. The results for the GI50 in assay [4], in assay [5] and in assay [6] (setting [7]) were above 1000 nM, 14.6 nM and 92.9 nM, respectively.

On to `CCc1cc(Nc2ncc(Br)c(Nc3ccc4nccnc4c3NS(C)(=O)=O)n2)c(OC)cc1N1CCC(N2CCN(CCc3cccc4c3CN(C3CCC(=O)NC3=O)C4=O)CC2)CC1` (stereo not shown) [Compound 9, N-(6-((5-bromo-2-((4-(4-(4-(2-(2-(2,6-dioxopiperidin-3-yl)-1-oxoisoindolin-4-yl)ethyl)piperazin-1-yl)piperidin-1-yl)-5-ethyl-2-methoxyphenyl)amino)pyrimidin-4-yl)amino)quinoxalin-5-yl)methanesulfonamide], for which the DC50 in assay [1] is above 1000 nM; in assay [2], 8.05 nM; in assay [3], 251 nM. The GI50 in assay [4] was above 1000 nM; in assay [5] it was 14.7 nM; in assay [6] (setting [7]) it was 563 nM.

As to `CCc1cc(Nc2ncc(Br)c(Nc3ccc4nccnc4c3NS(C)(=O)=O)n2)c(OC)cc1N1CCC(N2CCN(C3CCN(c4ccc5c(c4)CN(C4CCC(=O)NC4=O)C5=O)CC3)CC2)CC1` (stereo not shown) [Compound 49, N-(6-((5-bromo-2-((4-(4-(4-(1-(2-(2,6-dioxopiperidin-3-yl)-1-oxoisoindolin-5-yl)piperidin-4-yl)piperazin-1-yl)piperidin-1-yl)-5-ethyl-2-methoxyphenyl)amino)pyrimidin-4-yl)amino)quinoxalin-5-yl)methanesulfonamide], the 50% degradation concentration (DC50) was above 1000 nM in assay [1], 2.36 nM in assay [2] and 19.7 nM in assay [3]. Moreover, the GI50 is at least 1000 nM in assay [4], 4.43 nM in assay [5] and 32.7 nM in assay [6] (setting [7]).

With `CCc1cc(Nc2ncc(Br)c(Nc3ccc4nccnc4c3NS(C)(=O)=O)n2)c(OC)cc1N1CCC2(CCN(CC3CCN(c4ccc5c(c4)CN(C4CCC(=O)NC4=O)C5=O)CC3)CC2)CC1` (stereo not shown) [Compound 37, N-(6-((5-bromo-2-((4-(9-((1-(2-(2,6-dioxopiperidin-3-yl)-1-oxoisoindolin-5-yl)piperidin-4-yl)methyl)-3,9-diazaspiro[5.5]undecan-3-yl)-5-ethyl-2-methoxyphenyl)amino)pyrimidin-4-yl)amino)quinoxalin-5-yl)methanesulfonamide], the values for the DC50 in assay [2] and in assay [3] were 8.6 nM and 102 nM, respectively. Moreover, the concentration for 50% growth inhibition (GI50) in assay [4] is 382 nM; in assay [5], 7.94 nM; in assay [6] (setting [7]), 55.7 nM.

In the case of `CCc1cc(Nc2ncc(Br)c(Nc3ccc4nccnc4c3NS(C)(=O)=O)n2)c(OC)cc1N1CCC(N2CCC3(CCN(c4ccc5c(c4)CN(C4CCC(=O)NC4=O)C5=O)CC3)CC2)CC1` (stereo not shown) [Compound 53, N-(6-((5-bromo-2-((4-(4-(9-(2-(2,6-dioxopiperidin-3-yl)-1-oxoisoindolin-5-yl)-3,9-diazaspiro[5.5]undecan-3-yl)piperidin-1-yl)-5-ethyl-2-methoxyphenyl)amino)pyrimidin-4-yl)amino)quinoxalin-5-yl)methanesulfonamide], the 50% degradation concentration (DC50) in assay [2] was 5.99 nM; in assay [3] it was above 1000 nM. In addition, the GI50 in assay [4] is above 1000 nM; in assay [5] it was 22.7 nM; in assay [6] (setting [7]) it was 330 nM.

As for `CCc1cc(Nc2ncc(Br)c(Nc3ccc4nccnc4c3NS(C)(=O)=O)n2)c(OC)cc1N1CCC(N2CCN(C3CCC4(CC3)CN(c3ccc5c(c3)CN(C3CCC(=O)NC3=O)C5=O)C4)CC2)CC1` (stereo not shown) [Compound 50, N-(6-((5-bromo-2-((4-(4-(4-(2-(2-(2,6-dioxopiperidin-3-yl)-1-oxoisoindolin-5-yl)-2-azaspiro[3.5]nonan-7-yl)piperazin-1-yl)piperidin-1-yl)-5-ethyl-2-methoxyphenyl)amino)pyrimidin-4-yl)amino)quinoxalin-5-yl)methanesulfonamide], the DC50 stood at 38.5 nM in assay [2] and 95.2 nM in assay [3]. Moreover, the values for the GI50 in assay [4], in assay [5] and in assay [6] (setting [7]) were above 1000 nM, 13 nM and 106 nM, respectively.

As to `CCc1cc(Nc2ncc(Br)c(Nc3ccc4nccnc4c3NS(C)(=O)=O)n2)c(OC)cc1N1CCC(N2CCN(CCC3CCN(c4cc(F)c(C5CCC(=O)NC5=O)c(F)c4)CC3)CC2)CC1` (stereo not shown) [Compound 90, N-(6-((5-bromo-2-((4-(4-(4-(2-(1-(4-(2,6-dioxopiperidin-3-yl)-3,5-difluorophenyl)piperidin-4-yl)ethyl)piperazin-1-yl)piperidin-1-yl)-5-ethyl-2-methoxyphenyl)amino)pyrimidin-4-yl)amino)quinoxalin-5-yl)methanesulfonamide], the DC50 in assay [2] worked out at 38.6 nM; in assay [3] it was 135 nM. Also, the GI50 is above 1000 nM in assay [4], 19.1 nM in assay [5] and 89.4 nM in assay [6] (setting [7]).

`CCc1cc(Nc2ncc(Br)c(Nc3ccc4nccnc4c3NS(C)(=O)=O)n2)c(OC)cc1N1CCC(N2CCC(N3CCN(c4ccc5c(c4)CN([C@H]4CCC(=O)NC4=O)C5=O)CC3)CC2)CC1` [Compound 36, (S)-N-(6-((5-bromo-2-((4-(4-(4-(2-(2,6-dioxopiperidin-3-yl)-1-oxoisoindolin-5-yl)piperazin-1-yl)-[1,4′-bipiperidin]-1′-yl)-5-ethyl-2-methoxyphenyl)amino)pyrimidin-4-yl)amino)quinoxalin-5-yl)methanesulfonamide]: the DC50 amounted to 1.27 nM in assay [2] and 102 nM in assay [3]. The GI50 in assay [4] was above 1000 nM; in assay [5], 9.12 nM; in assay [6] (setting [7]) it was 77.6 nM.
